This note sets out measurements from US10683269B2 (MISSION THERAPEUTICS LIMITED, priority 2016, dated 2020).

pIC50: −log10 of the molar value.

Usually pIC50 stands for the IC50 on a negative log10 scale, so that one unit is a factor of ten.

The target in this experiment is T1, USP7 (Homo sapiens, UniProt Q93009).
T1 construct: The USP7 construct was PCR amplified and cloned into a pFLAG-CMV-6a vector (Sigma-Aldrich) with an N-terminal FLAG tag; made in house; host or cells: HEK293T
T1 sequence (Q93009 whole entry): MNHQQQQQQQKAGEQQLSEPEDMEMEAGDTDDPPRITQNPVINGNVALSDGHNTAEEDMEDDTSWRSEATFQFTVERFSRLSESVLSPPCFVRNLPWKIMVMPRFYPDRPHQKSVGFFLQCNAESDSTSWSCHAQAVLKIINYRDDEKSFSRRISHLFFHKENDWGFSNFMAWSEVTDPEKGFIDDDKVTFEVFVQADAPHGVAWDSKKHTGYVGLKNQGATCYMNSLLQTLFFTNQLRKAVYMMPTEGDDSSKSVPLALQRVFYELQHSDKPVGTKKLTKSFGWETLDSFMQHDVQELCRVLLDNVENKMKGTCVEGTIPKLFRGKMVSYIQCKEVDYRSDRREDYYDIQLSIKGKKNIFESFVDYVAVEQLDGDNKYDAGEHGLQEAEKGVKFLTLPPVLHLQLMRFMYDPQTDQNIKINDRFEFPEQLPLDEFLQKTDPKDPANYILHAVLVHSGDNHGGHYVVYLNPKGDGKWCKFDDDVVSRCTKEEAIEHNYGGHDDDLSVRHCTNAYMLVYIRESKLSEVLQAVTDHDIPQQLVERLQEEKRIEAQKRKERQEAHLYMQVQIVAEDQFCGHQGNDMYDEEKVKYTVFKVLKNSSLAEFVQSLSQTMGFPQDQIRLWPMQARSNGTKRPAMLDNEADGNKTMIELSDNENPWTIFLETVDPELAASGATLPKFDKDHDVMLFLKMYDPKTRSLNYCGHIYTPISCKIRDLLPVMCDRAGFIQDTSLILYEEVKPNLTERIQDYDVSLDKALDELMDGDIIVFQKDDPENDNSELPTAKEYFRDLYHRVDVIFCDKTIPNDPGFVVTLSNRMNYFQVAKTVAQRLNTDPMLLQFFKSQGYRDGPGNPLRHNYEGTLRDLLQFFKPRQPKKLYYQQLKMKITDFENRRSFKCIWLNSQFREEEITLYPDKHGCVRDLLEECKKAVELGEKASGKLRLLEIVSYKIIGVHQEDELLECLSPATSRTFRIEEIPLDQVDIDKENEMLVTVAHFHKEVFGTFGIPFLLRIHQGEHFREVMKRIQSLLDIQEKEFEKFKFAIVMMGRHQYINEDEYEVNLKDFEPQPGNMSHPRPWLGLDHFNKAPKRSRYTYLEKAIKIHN
Put plainly: USP7 biochemical IC50 assay (fluorescence polarisation, TAMRA labelled peptide linked to ubiquitin via an iso-peptide bond). As to conditions: 30 min pre-incubation of enzyme and compound, read after 2 hr incubation at room temperature, read-out: IC50 range. The procedure:
In Vitro USP7 Inhibition Assay
Expression and Purification of USP7
The USP7 construct was PCR amplified and cloned into a pFLAG-CMV-6a vector (Sigma-Aldrich) with an N-terminal FLAG tag. HEK293T cells were transfected with FLAG-USP7 using TransIT-LT1 transfection reagent (Mirus) according to the manufacturer's instructions. Cells were harvested 40 hours after transfection. […] The resin was washed two times with low salt buffer plus protease inhibitors (complete mini, Roche) and phosphatase inhibitors (PhosSTOP mini, Roche) and one time with high salt buffer (20 mM Tris, pH 7.5, 500 mM NaCl, 0.5 mM EDTA, 5 mM beta-mercaptoethanol, protease inhibitors (complete mini, Roche) and phosphatase inhibitors (PhosSTOP mini, Roche). To elute the bound USP7, elution buffer (10 mM Tris, pH 7.5, 150 mM NaCl, 0.5 mM EDTA, 10% glycerol, 0.5% NP40, 5 mM beta-mercaptoethanol, 0.15 mg/ml 3×FLAG peptide (Sigma-Aldrich)) was added to the resin and incubated at 4° C. for 2.5 hours rotating. The resin was centrifuged at 4000 rpm for 30 seconds, and the supernatant containing purified FLAG-USP7 was removed and stored at −80° C.
USP7 Biochemical IC50 Assay
A typical 8-point dilution series would be 100, 30, 10, 3, 1, 0.3, 0.1, 0.03 μM final. […] Either 1 μl of 50% DMSO or diluted compound was added to the plate. USP7 was diluted in reaction buffer (20 mM Tris, pH 7.5, 100 mM NaCl, 0.05% Tween 20, 0.5 mg/ml BSA, 5 mM—beta mercaptoethanol) to the equivalent of 0.0025 μl/well and 10 μl of diluted USP7 was added to the compound. Enzyme and compound were incubated for 30 min at room temp. Reactions were initiated by the addition of 50 nM of TAMRA labelled peptide linked to ubiquitin via an iso-peptide bond as fluorescence polarisation substrate. Reactions were read immediately after addition of substrate and following a 2 hr incubation at room temperature. Readings were performed on a Pherastar Plus (BMG Labtech). λ Excitation 540 nm; λ Emission 590 nm.
In general terms: Polarisation of emitted light reports the rotation of a fluorescent probe.
As to `CNC(=O)c1ccc(-c2cc(NC(=O)[C@@H]3CCCN(C)C3)cc3c2CN(C#N)C3)cc1` [Example 29, (R)-N-(2-cyano-7-(4-(methylcarbamoyl)phenyl)isoindolin-5-yl)-1-methylpiperidine-3-carboxamide], the pIC50 is greater than 6.00.
As for `CC(=O)N1CCC(C(=O)Nc2cc3c(c(-c4ccccc4)c2)CN(C#N)C3)CC1` [Example 47, 1-acetyl-N-(2-cyano-7-phenylisoindolin-5-yl)piperidine-4-carboxamide], the pIC50 is greater than 6.00.
On to `N#CN1Cc2nc(NCCO)nc(-c3ccc(F)c(F)c3)c2C1` [Example 209, 4-(3,4-difluorophenyl)-2-((2-hydroxyethyl)amino)-5,7-dihydro-6H-pyrrolo[3,4-d]pyrimidine-6-carbonitrile], for which the negative logarithm of the IC50 (pIC50) is 5.00 to 6.00.
For `N#CN1Cc2cccc(-c3ccccc3S(=O)(=O)NCCO)c2C1` [Example 179, 2-(2-cyanoisoindolin-4-yl)-N-(2-hydroxyethyl)benzenesulfonamide], the pIC50 is 5.00 to 6.00.
Under `N#Cc1cc(-n2ccnc2)ccc1-c1cccc2c1CN(C#N)C2` [Example 181, 4-(2-cyano-4-(1H-imidazol-1-yl)phenyl)isoindoline-2-carbonitrile] stands 5.00 to 6.00.
Under `COc1ccc(-c2nc3c(c(N4CCCC4)n2)CN(C#N)C3)cc1` [Example 130, 2-(4-methoxyphenyl)-4-(pyrrolidin-1-yl)-5,7-dihydro-6H-pyrrolo[3,4-c]pyrimidine-6-carbonitrile] stands 4.52 to 5.00.
With `N#CN1Cc2cccc(NC(=O)c3cc(-c4cnccn4)[nH]n3)c2C1` [Example 86, N-(2-cyanoisoindolin-4-yl)-5-(pyrazin-2-yl)-1H-pyrazole-3-carboxamide], the negative-log IC50 (pIC50) was 5.00 to 6.00.
Regarding `N#CN1Cc2cccc(C(=O)NCc3ccccc3)c2C1` [Example 95, N-benzyl-2-cyanoisoindoline-4-carboxamide], the pIC50 is 4.52 to 5.00.
With `CN1CCN(c2ccc(-c3nc(NCCO)nc4c3CN(C#N)C4)cc2)CC1` [Example 212, 2-((2-hydroxyethyl)amino)-4-(4-(4-methylpiperazin-1-yl)phenyl)-5,7-dihydro-6H-pyrrolo[3,4-d]pyrimidine-6-carbonitrile], the negative logarithm of the IC50 (pIC50) is 5.00 to 6.00.
On to `N#Cc1ccc(-c2cc(NC3CCS(=O)(=O)CC3)cc3c2CN(C#N)C3)cc1` [Example 273, 4-(4-cyanophenyl)-6-((1,1-dioxidotetrahydro-2H-thiopyran-4-yl)amino)isoindoline-2-carbonitrile], for which the negative logarithm of the IC50 (pIC50) was 5.00 to 6.00.
As for `N#CN1Cc2nc(NCc3cncs3)nc(-c3ccccc3)c2C1` [Example 119, 4-phenyl-2-((thiazol-5-ylmethyl)amino)-5,7-dihydro-6H-pyrrolo[3,4-d]pyrimidine-6-carbonitrile], the pIC50 is 5.00 to 6.00.
As to `CN1CCC(CNc2nc3c(c(-c4ccccc4)n2)CN(C#N)C3)C1` (stereo not shown) [Example 127, 2-(((1-methylpyrrolidin-3-yl)methyl)amino)-4-phenyl-5,7-dihydro-6H-pyrrolo[3,4-d]pyrimidine-6-carbonitrile], the pIC50 is 5.00 to 6.00.
Consider `N#CN1Cc2cccc(-c3ccccc3C(=O)N3CCCC3)c2C1` [Example 155, 4-(2-(pyrrolidine-1-carbonyl)phenyl)isoindoline-2-carbonitrile], for which the negative logarithm of the IC50 (pIC50) is 4.52 to 5.00.
Turning to `CN1CCOC(CNc2nc3c(c(-c4cccc(F)c4)n2)CN(C#N)C3)C1` (stereo not shown) [Example 193, 4-(3-fluorophenyl)-2-(((4-methylmorpholin-2-yl)methyl)amino)-5,7-dihydro-6H-pyrrolo[3,4-d]pyrimidine-6-carbonitrile], the negative-log IC50 (pIC50) is 5.00 to 6.00.
Consider `N#CN1Cc2cccc(-c3ccccc3)c2C1` [Example 6, 4-phenylisoindoline-2-carbonitrile], for which the pIC50 is 5.00 to 6.00.
On to `CN(C)Cc1cc2c(c(-c3ccccc3)c1)CN(C#N)C2` [Example 213, 6-((dimethylamino)methyl)-4-phenylisoindoline-2-carbonitrile], for which the negative logarithm of the IC50 (pIC50) was 5.00 to 6.00.
As for `N#CN1Cc2cc(NC(=O)c3cccnc3)cc(-c3ccccc3)c2C1` [Example 23, N-(2-cyano-7-phenylisoindolin-5-yl)nicotinamide], the pIC50 is 4.00 to 4.52.
`N#Cc1ccc(-c2cc(NC(=O)C3CCOCC3)cc3c2CN(C#N)C3)cc1` [Example 264, N-(2-cyano-7-(4-cyanophenyl)isoindolin-5-yl)tetrahydro-2H-pyran-4-carboxamide]: the negative-log IC50 (pIC50) was 5.00 to 6.00.
As for `N#Cc1ccc(-c2cccc3c2CN(C#N)C3)c2c1CCC2=O` [Example 176, 4-(7-cyano-3-oxo-2,3-dihydro-1H-inden-4-yl)isoindoline-2-carbonitrile], the negative-log IC50 (pIC50) was 5.00 to 6.00.
On to `N#CN1Cc2nccc(-c3cccc(Cl)c3)c2C1` [Example 18, 4-(3-chlorophenyl)-5,7-dihydro-6H-pyrrolo[3,4-b]pyridine-6-carbonitrile], for which the negative logarithm of the IC50 (pIC50) was 5.00 to 6.00.
Turning to `N#Cc1ccc(-c2cccc3c2CN(C#N)C3)cc1` [Example 13, 4-(4-cyanophenyl)isoindoline-2-carbonitrile], the negative logarithm of the IC50 (pIC50) is 5.00 to 6.00.
The figure for `CN1CCC[C@@H](C(=O)Nc2cc3c(c(-c4cccc(Cl)c4)c2)CN(C#N)C3)C1` [Example 34, (R)-N-(7-(3-chlorophenyl)-2-cyanoisoindolin-5-yl)-1-methylpiperidine-3-carboxamide] is 5.00 to 6.00.
Under `N#CN1Cc2nc(NCc3ccccn3)nc(-c3ccccc3)c2C1` [Example 117, 4-phenyl-2-((pyridin-2-ylmethyl)amino)-5,7-dihydro-6H-pyrrolo[3,4-d]pyrimidine-6-carbonitrile] stands 5.00 to 6.00; under `N#Cc1cc(-c2cn[nH]c2)ccc1-c1cccc2c1CN(C#N)C2` [Example 294, 4-(2-cyano-4-(1H-pyrazol-4-yl)phenyl)isoindoline-2-carbonitrile], 5.00 to 6.00; under `CS(=O)(=O)Nc1cc2c(c(-c3ccccc3)c1)CN(C#N)C2` [Example 61, N-(2-cyano-7-phenylisoindolin-5-yl)methanesulfonamide], 5.00 to 6.00.
Turning to `COc1ccc(C#N)c(-c2cc(NS(C)(=O)=O)cc3c2CN(C#N)C3)c1` [Example 245, N-(2-cyano-7-(2-cyano-5-methoxyphenyl)isoindolin-5-yl)methanesulfonamide], the negative logarithm of the IC50 (pIC50) was 5.00 to 6.00.
`COCCn1cc(-c2nc3c(c(N4CCc5ccccc5C4)n2)CN(C#N)C3)cn1` [Example 146]: the negative-log IC50 (pIC50) is greater than 6.00.
`CN(C)CC(=O)Nc1cc2c(c(-c3ccccc3)c1)CN(C#N)C2` [Example 49]: the negative logarithm of the IC50 (pIC50) was greater than 6.00.
As to `CN1CCC(C(=O)Nc2cc3c(c(-c4ccccc4)c2)CN(C#N)C3)C1` (stereo not shown) [Example 43, N-(2-cyano-7-phenyl-isoindolin-5-yl)-1-methylpyrrolidine-3-carboxamide], the negative logarithm of the IC50 (pIC50) was 4.00 to 4.52.
Regarding `N#CN1Cc2cc(NC(=O)C3CCNCC3)cc(-c3ccccc3)c2C1` [Example 63, N-(2-cyano-7-phenylisoindolin-5-yl)piperidine-4-carboxamide], the negative-log IC50 (pIC50) is 5.00 to 6.00.
The figure for `Cn1cc2cc(-c3cccc4c3CN(C#N)C4)ccc2n1` [Example 11, 4-(2-methyl-2H-indazol-5-yl)isoindoline-2-carbonitrile] is 5.00 to 6.00; for `Cn1cc(C(=O)NCc2cc3c(c(-c4ccc(C#N)cc4)c2)CN(C#N)C3)cn1` [Example 221, N-((2-cyano-7-(4-cyanophenyl)isoindolin-5-yl)methyl)-1-methyl-1H-pyrazole-4-carboxamide] it is greater than 6.00.
Under `N#CN1Cc2nc(NC3CCCc4ccccc43)nc(-c3ccccc3)c2C1` (stereo not shown) [Example 115, 4-phenyl-2-((1,2,3,4-tetrahydronaphthalen-1-yl)amino)-5,7-dihydro-6H-pyrrolo[3,4-d]pyrimidine-6-carbonitrile] stands 4.52 to 5.00.
Turning to `N#CN1Cc2ncnc(N3CCN(c4ccc(F)cc4F)CC3)c2C1` [Example 99, 4-(4-(2,4-difluorophenyl)piperazin-1-yl)-5H-pyrrolo[3,4-d]pyrimidine-6(7H)-carbonitrile], the pIC50 was 4.52 to 5.00.
For the compound `N#CN1Cc2nc(N[C@H]3CC[C@H](O)CC3)nc(-c3ccccc3)c2C1` [Example 110, 2-(((1R,4R)-4-hydroxycyclohexyl)amino)-4-phenyl-5H-pyrrolo[3,4-d]pyrimidine-6(7H)-carbonitrile], the pIC50 was 5.00 to 6.00.
Consider `CN(C)c1cc2c(c(-c3ccc(C#N)cc3)c1)CN(C#N)C2` [Example 270, 4-(4-cyanophenyl)-6-(dimethylamino)isoindoline-2-carbonitrile], for which the pIC50 was greater than 6.00.
For the compound `N#CN1Cc2cccc(-c3cccc4c3C(=O)NC4)c2C1` [Example 68, 3-oxo-[4,4′-biisoindoline]-2′-carbonitrile], the pIC50 was 5.00 to 6.00.
